Source: patent US20260028365A1 (BIOGEN MA INC., priority 2022, published 2026)
Like-named read-outs stand apart in the source and are kept apart here.

Assays:
[1] = molecular target: JH2 domain of human Tyk2 (Homo sapiens (Human), UniProt P29597); test: JH2 Biochemical Assay (TR-FRET probe displacement); assay type: binding
[2] = molecular target: Tyk2 (Homo sapiens (Human), UniProt P29597); test: pSTAT4 Cell Assay (MSD, NK92 cells); assay type: cell-based
[3] = TR-FRET probe displacement, JH2 domain of human Tyk2
[4] = JH2 domain of human Tyk2, TR-FRET probe displacement
[5] = TR-FRET probe displacement, JH2 domain

Sequence of Tyk2 (P29597 whole entry, the tested form may be a part): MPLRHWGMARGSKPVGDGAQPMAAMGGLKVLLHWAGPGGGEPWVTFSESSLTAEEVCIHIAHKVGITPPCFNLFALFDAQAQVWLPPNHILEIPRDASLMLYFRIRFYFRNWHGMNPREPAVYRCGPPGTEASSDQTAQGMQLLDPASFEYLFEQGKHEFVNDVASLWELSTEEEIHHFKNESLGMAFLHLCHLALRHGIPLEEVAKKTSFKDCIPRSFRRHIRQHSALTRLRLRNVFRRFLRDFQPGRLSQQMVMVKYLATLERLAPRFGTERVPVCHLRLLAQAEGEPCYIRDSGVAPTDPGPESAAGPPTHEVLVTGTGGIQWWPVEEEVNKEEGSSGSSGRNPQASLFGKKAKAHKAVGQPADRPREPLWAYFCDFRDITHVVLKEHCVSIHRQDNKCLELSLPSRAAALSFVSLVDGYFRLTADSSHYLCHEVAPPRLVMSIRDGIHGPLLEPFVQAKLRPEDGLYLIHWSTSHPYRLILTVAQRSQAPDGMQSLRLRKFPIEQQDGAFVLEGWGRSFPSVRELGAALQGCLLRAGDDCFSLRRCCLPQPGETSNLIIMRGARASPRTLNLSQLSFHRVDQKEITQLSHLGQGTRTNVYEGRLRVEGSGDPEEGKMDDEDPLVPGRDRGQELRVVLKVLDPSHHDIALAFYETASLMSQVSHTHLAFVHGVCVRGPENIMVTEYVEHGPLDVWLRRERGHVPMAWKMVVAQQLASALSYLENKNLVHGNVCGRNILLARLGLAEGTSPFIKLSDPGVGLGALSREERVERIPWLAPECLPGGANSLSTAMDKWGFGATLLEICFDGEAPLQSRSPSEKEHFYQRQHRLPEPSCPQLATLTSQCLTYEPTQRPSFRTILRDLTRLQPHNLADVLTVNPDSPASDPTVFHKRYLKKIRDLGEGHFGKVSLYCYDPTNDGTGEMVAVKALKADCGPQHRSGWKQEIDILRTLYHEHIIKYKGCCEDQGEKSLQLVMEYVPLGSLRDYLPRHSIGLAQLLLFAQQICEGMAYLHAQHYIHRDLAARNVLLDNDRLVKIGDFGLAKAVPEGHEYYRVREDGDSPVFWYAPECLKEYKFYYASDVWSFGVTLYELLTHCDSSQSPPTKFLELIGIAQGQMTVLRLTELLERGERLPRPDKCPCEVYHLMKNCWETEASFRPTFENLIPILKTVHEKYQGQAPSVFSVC
Sequence of JH2 domain of human Tyk2 (P29597 575-876): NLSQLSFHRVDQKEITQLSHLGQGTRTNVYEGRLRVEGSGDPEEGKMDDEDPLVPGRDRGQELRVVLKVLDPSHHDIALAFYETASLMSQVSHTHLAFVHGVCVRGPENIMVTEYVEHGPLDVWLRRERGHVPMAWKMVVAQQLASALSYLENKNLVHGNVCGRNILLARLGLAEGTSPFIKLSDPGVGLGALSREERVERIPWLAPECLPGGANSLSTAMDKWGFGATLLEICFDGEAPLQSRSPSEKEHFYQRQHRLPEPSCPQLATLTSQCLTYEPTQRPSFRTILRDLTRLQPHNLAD

Row | Structure (SMILES) | IC50 [1, 3] [nM] | IC50 ([2]; MSD) [nM] | IC50 [1, 4] [nM] | IC50 [1, 5] [nM] | IC50 [2] [nM]
1 | CCC(F)(F)c1cnc(NC(C)=O)cc1Nc1cc(C)nc(C(C)(F)F)n1 [Example 154, N-(4-((2-(1,1-difluoroethyl)-6-methylpyrimidin-4-yl)amino)-5-(1,1-difluoropropyl)pyridin-2-yl)acetamide] | 10 to 100 | ≥ 1000 |  |  | 
2 | CC(=O)Nc1cc(Nc2cc(C)nc(C3CCOC3)n2)c(-c2ccn(C)n2)cn1 (centres unmarked) [Example 555, N-(5-(1-methyl-1H-pyrazol-3-yl)-4-((6-methyl-2-(tetrahydrofuran-3-yl)pyrimidin-4-yl)amino)pyridin-2-yl)acetamide] |  | 10 to 100 | ≤ 10 |  | 
3 | CC(=O)Nc1cc(Nc2cc(C)nc(C(C)(F)F)n2)c(OCc2ccc(F)c(F)c2)cn1 [Example 467, N-(5-((3,4-difluorobenzyl)oxy)-4-((2-(1,1-difluoroethyl)-6-methylpyrimidin-4-yl)amino)pyridin-2-yl)acetamide] |  | 10 to 100 | ≤ 10 |  | 
4 | CC(=O)Nc1cc(Nc2cc(C)nc(C(C)(F)F)n2)c(OC[C@H]2CCC(=O)N2)cn1 [Example 502, (R)-N-(4-((2-(1,1-difluoroethyl)-6-methylpyrimidin-4-yl)amino)-5-((5-oxopyrrolidin-2-yl)methoxy)pyridin-2-yl)acetamide] |  | 100 to 1000 | ≤ 10 |  | 
5 | CCOc1cnc(NC(C)=O)cc1Nc1cc(-c2cnn(CCN3CCOCC3)c2)nc(C(C)(F)F)n1 [Example 313, N-(4-((2-(1,1-difluoroethyl)-6-(1-(2-morpholinoethyl)-1H-pyrazol-4-yl)pyrimidin-4-yl)amino)-5-ethoxypyridin-2-yl)acetamide] | ≤ 10 | 10 to 100 |  |  | 
6 | CC(=O)Nc1cc(Nc2cc(C)nc(C(C)(F)F)n2)c(-c2cn3c(n2)OCC3)cn1 [Example 770, N-(4-((2-(1,1-difluoroethyl)-6-methylpyrimidin-4-yl)amino)-5-(2,3-dihydroimidazo[2,1-b]oxazol-6-yl)pyridin-2-yl)acetamide] |  |  |  | ≤ 10 | ≤ 10
7 | CC(=O)Nc1cc(Nc2cncc(C(C)(F)F)n2)c(-c2ncc(F)cn2)cn1 [Example 188, N-(4-((6-(1,1-difluoroethyl)pyrazin-2-yl)amino)-5-(5-fluoropyrimidin-2-yl)pyridin-2-yl)acetamide] | ≤ 10 | 10 to 100 |  |  | 
8 | CC(=O)Nc1cc(Nc2cc(C)nc(C(C)(C)F)n2)c(-c2cn3cnnc3cn2)cn1 [Example 532, N-(5-([1,2,4]triazolo[4,3-a]pyrazin-6-yl)-4-((2-(2-fluoropropan-2-yl)-6-methylpyrimidin-4-yl)amino)pyridin-2-yl)acetamide] |  | 100 to 1000 | ≤ 10 |  | 
9 | CCCn1ccc(-c2cnc(NC(C)=O)cc2Nc2ccnc(C(C)(F)F)n2)n1 [Example 705, N-(4-((2-(1,1-difluoroethyl)pyrimidin-4-yl)amino)-5-(1-propyl-1H-pyrazol-3-yl)pyridin-2-yl)acetamide] |  | ≤ 10 | ≤ 10 |  | 
10 | [2H]C([2H])([2H])C(=O)Nc1cc(Nc2ccnc(C(C)(F)F)n2)c(-c2ccc(OC)nn2)cn1 [Example 527, N-(4-((2-(1,1-difluoroethyl)pyrimidin-4-yl)amino)-5-(6-methoxypyridazin-3-yl)pyridin-2-yl)acetamide-2,2,2-d3] |  | ≤ 10 | ≤ 10 |  | 
11 | COCc1cnc(-c2cnc(NC(C)=O)cc2Nc2ccnc(C(C)(F)F)n2)s1 [Example 781, N-(4-((2-(1,1-difluoroethyl)pyrimidin-4-yl)amino)-5-(5-(methoxymethyl)thiazol-2-yl)pyridin-2-yl)acetamide] |  |  |  | ≤ 10 | ≤ 10
12 | COCCn1ncc(-c2cnc(NC(C)=O)cc2Nc2cc(OC3CC3)nc(C(C)(F)F)n2)n1 [Example 587, N-(4-((6-cyclopropoxy-2-(1,1-difluoroethyl)pyrimidin-4-yl)amino)-5-(2-(2-methoxyethyl)-2H-1,2,3-triazol-4-yl)pyridin-2-yl)acetamide] |  | ≤ 10 | ≤ 10 |  | 
13 | CC(=O)Nc1cc(Nc2cc(C)nc(C(C)(F)F)n2)c(O[C@H]2C[C@@H](F)C2)cn1 [Example 412, N-(4-((2-(1,1-difluoroethyl)-6-methylpyrimidin-4-yl)amino)-5-((1s,3s)-3-fluorocyclobutoxy)pyridin-2-yl)acetamide] |  | 10 to 100 | ≤ 10 |  | 
14 | CC(=O)Nc1cc(Nc2cc(C)nc(C(C)(F)F)n2)c(-c2ccc(C)cn2)cn1 [Example 593, N-(4′-((2-(1,1-difluoroethyl)-6-methylpyrimidin-4-yl)amino)-5-methyl-[2,3′-bipyridin]-6′-yl)acetamide] |  | ≤ 10 | ≤ 10 |  | 
15 | CC(=O)Nc1cc(Nc2cc(C)nc(C(C)(F)F)n2)c(OCC2CC23CCOC3)cn1 (centres unmarked) [Example 432, N-(5-((5-oxaspiro[2.4]heptan-1-yl)methoxy)-4-((2-(1,1-difluoroethyl)-6-methylpyrimidin-4-yl)amino)pyridin-2-yl)acetamide] |  | 10 to 100 | ≤ 10 |  | 
16 | CC(=O)Nc1cc(Nc2cc(C)nc(C(C)(F)F)n2)c(-c2cnc(N(C)C)cn2)cn1 [Example 225, N-(4-((2-(1,1-difluoroethyl)-6-methylpyrimidin-4-yl)amino)-5-(5-(dimethylamino)pyrazin-2-yl)pyridin-2-yl)acetamide] | ≤ 10 | 10 to 100 |  |  | 

Row | Structure (SMILES) | IC50 [1, 3] [nM] | IC50 ([2]; MSD) [nM] | IC50 [1, 4] [nM] | IC50 [1, 5] [nM] | IC50 [2] [nM]
17 | CC(=O)Nc1cc(Nc2cc(C)nc(C(C)(F)F)n2)c(-c2cccc(F)n2)cn1 [Example 623, N-(4′-((2-(1,1-difluoroethyl)-6-methylpyrimidin-4-yl)amino)-6-fluorO[2,3′-bipyridin]-6′-yl)acetamide] |  | ≤ 10 | ≤ 10 |  | 
18 | CC(=O)Nc1cc(Nc2cc(C)nc(C(C)(F)F)n2)c(-c2ccc3c(n2)OCC(C)(C)O3)cn1 [Example 813, N-(4-((2-(1,1-difluoroethyl)-6-methylpyrimidin-4-yl)amino)-5-(2,2-dimethyl-2,3-dihydro-[1,4]dioxino[2,3-b]pyridin-6-yl)pyridin-2-yl)acetamide] |  |  |  | ≤ 10 | ≤ 10
19 | CCOc1cnc(NC(C)=O)cc1Nc1cc(NC)nc(C(C)(F)F)n1 [Example 485, N-(4-((2-(1,1-difluoroethyl)-6-(methylamino)pyrimidin-4-yl)amino)-5-ethoxypyridin-2-yl)acetamide] |  | 10 to 100 | ≤ 10 |  | 
20 | CC(=O)Nc1cc(Nc2cc(C)nc(C(C)(F)F)n2)c(-c2nc(C)cc(C#N)n2)cn1 [Example 657, N-(5-(4-cyanO6-methylpyrimidin-2-yl)-4-((2-(1,1-difluoroethyl)-6-methylpyrimidin-4-yl)amino)pyridin-2-yl)acetamide] |  | 100 to 1000 | 10 to 100 |  | 
21 | CC(=O)Nc1cc(Nc2cc(C)nc(C(C)(F)F)n2)c(OCc2cnoc2)cn1 [Example 504, N-(4-((2-(1,1-difluoroethyl)-6-methylpyrimidin-4-yl)amino)-5-(isoxazol-4-ylmethoxy)pyridin-2-yl)acetamide] |  | 10 to 100 | ≤ 10 |  | 
22 | COCCOc1cnc(NC(C)=O)cc1Nc1cc(C)nc(C(C)(F)CF)n1 (centres unmarked) [Example 81, N-(4-((2-(1,2-difluoropropan-2-y1)-6-methylpyrimidin-4-yl)amino)-5-(2-methoxyethoxy)pyridin-2-yl)acetamide] | ≤ 10 | 10 to 100 |  |  | 
23 | COCCOc1cnc(NC(C)=O)cc1Nc1cccc(C(C)(F)F)n1 [Example 56, N-(4-((6-(1,1-difluoroethyl)pyridin-2-yl)amino)-5-(2-methoxyethoxy)pyridin-2-yl)acetamide] | ≤ 10 | ≤ 10 |  |  | 
24 | CC(=O)Nc1cc(Nc2cc(C)nc(C(C)(F)F)n2)c(-c2cn3c(n2)CCC3)cn1 [Example 769, N-(4-((2-(1,1-difluoroethyl)-6-methylpyrimidin-4-yl)amino)-5-(6,7-dihydrO5H-pyrrolo[1,2-a]imidazol-2-yl)pyridin-2-yl)acetamide] |  |  |  | ≤ 10 | ≤ 10
25 | CC(=O)Nc1cc(Nc2cc(C)nc(C34COC(C3)C4)n2)c(-c2cc(C(F)F)ccn2)cn1 [Example 576, N-(4′-((2-(2-oxabicyclo[2.1.1]hexan-4-yl)-6-methylpyrimidin-4-yl)amino)-4-(difluoromethyl)-[2,3′-bipyridin]-6′-yl)acetamide] |  | 100 to 1000 | ≤ 10 |  | 
26 | CC(=O)Nc1cc(Nc2cc(C)nc(C(C)(F)F)n2)c(OCC2CCCO2)cn1 (centres unmarked) [Example 481, N-(4-((2-(1,1-difluoroethyl)-6-methylpyrimidin-4-yl)amino)-5-((tetrahydrofuran-2-yl)methoxy)pyridin-2-yl)acetamide] |  | 10 to 100 | ≤ 10 |  | 
27 | CC(=O)Nc1cc(Nc2cc(C)nc(C(C)(F)F)n2)c(OCc2ccon2)cn1 [Example 495, N-(4-((2-(1,1-difluoroethyl)-6-methylpyrimidin-4-yl)amino)-5-(isoxazol-3-ylmethoxy)pyridin-2-yl)acetamide] |  | 10 to 100 | ≤ 10 |  | 
28 | COCCOc1cnc(NC(C)=O)cc1Nc1cc(C)cc(C(C)(F)F)n1 [Example 63, N-(4-((6-(1,1-difluoroethyl)-4-methylpyridin-2-yl)amino)-5-(2-methoxyethoxy)pyridin-2-y1)acetamide] | ≤ 10 | ≤ 10 |  |  | 
29 | CC(=O)Nc1cc(Nc2cc(C)nc(C34COC(C3)C4)n2)c(-c2cc3n(n2)CC(F)(F)C3)cn1 [Example 564, N-(4-((2-(2-oxabicyclo[2.1.1]hexan-4-yl)-6-methylpyrimidin-4-yl)amino)-5-(5,5-difluorO5,6-dihydrO4H-pyrrolo[1,2-b]pyrazol-2-yl)pyridin-2-yl)acetamide] |  | ≤ 10 | ≤ 10 |  | 
30 | CC(=O)Nc1cc(Nc2cc(C)cc(C(C)(F)F)n2)c(-c2ncc(F)cn2)cn1 [Example 190, N-(4-((6-(1,1-difluoroethyl)-4-methylpyridin-2-yl)amino)-5-(5-fluoropyrimidin-2-yl)pyridin-2-yl)acetamide] | ≤ 10 | 10 to 100 |  |  | 
31 | CC(=O)Nc1cc(Nc2cccc(C(C)(F)F)n2)c(-c2cc(=O)n(C)cn2)cn1 [Example 161, N-(4-((6-(1,1-difluoroethyl)pyridin-2-yl)amino)-5-(1-methyl-6-oxo-1,6-dihydropyrimidin-4-yl)pyridin-2-yl)acetamide] | ≤ 10 | 10 to 100 |  |  | 
